Source: US20250188061A1, “NOVEL DEUTERATED PYRIMIDIN-2-YL SULFONAMIDE DERIVATIVES” (Hoffmann-La Roche Inc., priority 2022, published 2025)
pIC50: −log10 of the molar value.

Target: human GPR17 short isoform (Homo sapiens, UniProt Q13304)
Test: GPR17 cAMP assay (hGPR17 cAMP, antagonist mode)
Format: cell-based
Settings: CHO-K1 cells stably expressing human GPR17 short isoform; EC80 of agonist MDL29,951; forskolin 15 μM; TR-FRET cAMP
Text: Changes in intracellular cyclic adenosine monophosphate (cAMP) levels were quantified using the Nano-TRF Detection Assay kit (Roche Diagnostics, Cat. No. 05214386001). This assay allows for direct cAMP quantification in a homogeneous solution. cAMP is detected based on time-resolved fluorescence energy transfer (TR-FRET) and competitive binding of ruthenylated cAMP and endogenous cAMP to an anti-cAMP monoclonal antibody labeled with AlexaFluor-700. The Ruthenium complex serves as the FRET donor and transfers energy to AlexaFluor-700. The FRET signal is inversely proportional to the cAMP concentration.
CHO-GPR17S cells were detached with Accutase and resuspended in assay buffer consisting of Hank's Balanced Salt Solution (HBSS), 10 mM HEPES (4-(2-hydroxyethyl) piperazine-1-ethanesulfonic acid solution) and 0.1% bovine serum albumin (pH 7.4). The cells were seeded in black 384-well plates (Corning) at a density of 10,000 cells/20 μl assay buffer until the addition of compounds.
Test antagonist compounds were serially diluted in dimethyl sulfoxide (DMSO) and spotted in 384-well plates. The compounds were then diluted in HBSS buffer supplemented with an EC80 concentration of MDL29,951 (3-(2-Carboxy-4,6-dichloroindol-3-yl) propionic acid) (GPR17 agonist) plus 3-Isobutyl-1-methylxanthine (IBMX) (0.5 mM final concentration) and added to the cells at room temperature. Forskolin (15 μM final concentration) was added 5 minutes after the test compounds and the cells were incubated at room temperature for 30 minutes. The assay was stopped by adding cAMP detection mix (containing detergents for cell lysis) for 90 minutes at room temperature.
Cellular cAMP was measured using a Paradigm reader (Molecular Devices). The raw data was used to calculate the FRET signal based on the assay's P-factor as per cAMP kit instructions. The data was normalized to the maximal activity of a reference antagonist and dose response curves were fitted to the percent activity of the test compounds using a sigmoidal dose response model (Genedata Screener).

human GPR17 short isoform, sequence (Q13304 29-367): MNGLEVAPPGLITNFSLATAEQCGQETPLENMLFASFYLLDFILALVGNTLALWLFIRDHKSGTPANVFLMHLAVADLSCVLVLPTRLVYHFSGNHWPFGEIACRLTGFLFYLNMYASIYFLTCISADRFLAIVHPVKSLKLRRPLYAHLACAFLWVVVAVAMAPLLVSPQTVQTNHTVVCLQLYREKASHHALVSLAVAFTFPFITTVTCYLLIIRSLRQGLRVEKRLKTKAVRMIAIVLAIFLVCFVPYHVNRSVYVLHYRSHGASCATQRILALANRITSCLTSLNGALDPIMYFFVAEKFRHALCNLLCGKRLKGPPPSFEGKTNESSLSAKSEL

SMILES	pIC50
[2H]C([2H])(F)C([2H])([2H])Oc1c(OC)nc(NS(=O)(=O)c2c[nH]c3nc(Br)ccc23)nc1OC [Example 2, 6-bromo-N-[4,6-dimethoxy-5-(1,1,2,2-tetradeuterio-2-fluoro-ethoxy)pyrimidin-2-yl]-1H-pyrrolo [2,3-b]pyridine-3-sulfonamide]	7.38
[2H]C([2H])(c1c(OC)nc(NS(=O)(=O)c2c[nH]c3nc(Br)ccc23)nc1OC)C(F)F [Example 9, 6-bromo-N-[5-(1,1-dideuterio-2,2-difluoro-ethyl)-4,6-dimethoxy-pyrimidin-2-yl]-1H-pyrrolo[2,3-b]pyridine-3-sulfonamide]	7.64
[2H]C([2H])(c1cnc(NS(=O)(=O)c2c[nH]c3c(F)c(Cl)ccc23)nc1OC)C(F)F [Example 5, 6-chloro-N-[5-(1,1-dideuterio-2,2-difluoro-ethyl)-4-methoxy-pyrimidin-2-yl]-7-fluoro-1H-indole-3-sulfonamide]	6.97
[2H]C([2H])(c1cnc(NS(=O)(=O)c2c[nH]c3cc(Cl)ccc23)nc1OC)C(F)F [Example 7, 6-chloro-N-[5-(1,1-dideuterio-2,2-difluoro-ethyl)-4-methoxy-pyrimidin-2-yl]-1H-indole-sulfonamide]	7.26
[2H]C([2H])(c1c(OC)nc(NS(=O)(=O)c2c[nH]c3nc(Cl)ccc23)nc1OC)C(F)F [Example 11, 6-chloro-N-[5-(1,1-dideuterio-2,2-difluoro-ethyl)-4,6-dimethoxy-pyrimidin-2-yl]-1H-pyrrolo[2,3-b]pyridine-3-sulfanomide]	7.43
[2H]C([2H])(c1c(OC)nc(NS(=O)(=O)c2c[nH]c3nc(C)ccc23)nc1OC)C(F)F [Example 12, N-[5-(1,1-dideuterio-2,2-difluoro-ethyl)-4,6-dimethoxy-pyrimidin-2-yl]-6-methyl-1H-pyrrolo [2,3-b]pyridine-3-sulfonamide]	7.24
[2H]C([2H])(CF)Oc1cnc(NS(=O)(=O)c2c[nH]c3c(F)c(Cl)ccc23)nc1OC [Example 6, 6-chloro-N-[5-(1,1-dideuterio-2-fluoro-ethoxy)-4-methoxy-pyrimidin-2-yl]-7-fluoro-1H-indole-3-sulfonamide]	6.98
[2H]C([2H])(c1cnc(NS(=O)(=O)c2c[nH]c3cc(F)ccc23)nc1OC)C(F)F [Example 4, N-[5-(1,1-dideuterio-2,2-difluoro-ethyl)-4-methoxy-pyrimidin-2-yl]-6-fluoro-1H-indole-3-sulfonamide]	7.03
[2H]C([2H])(c1cnc(NS(=O)(=O)c2c[nH]c3c(F)c(Br)ccc23)nc1OC)C(F)F [Example 8, 6-bromo-N-[5-(1,1-dideuterio-2,2-difluoro-ethyl)-4-methoxy-pyrimidin-2-yl]-7-fluoro-1H-indole-3-sulfonamide]	6.86
[2H]C([2H])(F)C([2H])([2H])Oc1c(OC)nc(NS(=O)(=O)c2c[nH]c3nc(Cl)ccc23)nc1OC [Example 3, 6-chloro-N-[4,6-dimethoxy-5-(1,1,2,2-tetradeuterio-2-fluoro-ethoxy)pyrimidin-2-yl]-1H-pyrrolo[2,3-b]pyridine-3-sulfonamide]	7.20
[2H]C([2H])(F)C([2H])([2H])Oc1cnc(NS(=O)(=O)c2c[nH]c3c(F)c(Cl)ccc23)nc1OC [Example 1, 6-chloro-7-fluoro-N-[4-methoxy-5-(1,1,2,2-tetradeuterio-2-fluoro-ethoxy)pyrimidin-2-yl]-1H-indole-3-sulfonamide]	7.07
[2H]C([2H])(Oc1c(OC)nc(NS(=O)(=O)c2c[nH]c3nc(Br)ccc23)nc1OC)C(F)F [Example 10, 6-bromo-N-[5-(1,1-dideuterio-2,2-difluoro-ethoxy)-4,6-dimethoxy-pyrimidin-2-yl]-1H-pyrrolo[2,3-b]pyridine-3-sulfonamide]	7.09
